{
  "source": "paper PMC5531749",
  "about": "(Psychopharmacology, 2016)",
  "key": {"[1]": {"tested_on": "visceral insular cortex (VIC) of rats", "details": "intra-VIC, cited from earlier work"}, "male Sprague-Dawley rats [2]": {"tested_on": "male Sprague-Dawley rats", "details": "cited from earlier work"}, "male Sprague-Dawley rats [3]": {"tested_on": "male Sprague-Dawley rats", "details": "cited from earlier work", "remark": "listed apart in the source"}, "[4]": {"tested_on": "AEA and 2-AG in rat whole brain tissue", "details": "ref Limebeer et al. 2014; cited from earlier work"}, "[5]": {"tested_on": "2AG and AEA levels in nucleus accumbens", "details": "localized brain area; ref Wiskerke et al. (2012); cited from earlier work"}, "rat MAGL": {"tested_on": "rat MAGL", "details": "ref Limebeer et al. 2014; cited from earlier work"}, "male Sprague-Dawley rats [6]": {"tested_on": "male Sprague-Dawley rats", "format": "in vivo, rat", "details": "SR141716 2.5 mg/kg 90 min after AM4301 20 mg/kg"}, "male Sprague-Dawley rats [7]": {"tested_on": "male Sprague-Dawley rats", "experiment": "Anticipatory nausea: contextually elicited conditioned gaping", "format": "in vivo, rat"}, "[8]": {"tested_on": "2-AG and AEA in VIC tissue", "details": "systemic and intra-VIC administration; ref Sticht et al. (2015); cited from earlier work"}, "[9]": {"details": "10–20 mg/kg systemic, CB1 receptor-dependent, ref Parker et al. 2014"}},
  "note": "Like-named read-outs stand apart in the source and are kept apart here.",
  "data": [
    {"smiles": "CCCCCCC(C)(C)c1cc(O)c2c(c1)OC(C)(C)[C@@H]1CC=C(CO)C[C@@H]21", "note": "[HU-210]", "values": [
      {"measurement": "acute nausea after administration into the VIC", "setting": "[1]; ref Limebeer et al. 2012", "value": "suppressed"}
    ]},
    {"smiles": "NC(=O)c1cccc(-c2cccc(OC(=O)NC3CCCCC3)c2)c1", "note": "[URB597, cyclohexyl carbamic acid 3′-carbamoyl-biphenyl-3-yl ester]", "values": [
      {"measurement": "acute nausea, systemic FAAH inhibitor", "setting": "male Sprague-Dawley rats [2]; 0.3 mg/kg systemic, ref Cross-Mellor et al. 2007", "value": "suppresses"},
      {"measurement": "anticipatory nausea, systemic FAAH inhibitor", "setting": "male Sprague-Dawley rats [3]; 0.3 mg/kg systemic, ref Rock et al. 2008", "value": "suppresses"}
    ]},
    {"smiles": "O=C(Oc1ccc([N+](=O)[O-])cc1)N1CCN(Cc2cccc(Oc3ccccc3)c2)CC1", "note": "[JZL195]", "values": [
      {"measurement": "anticipatory nausea, dual FAAH/MAGL inhibitor", "setting": "male Sprague-Dawley rats [3]; 10 mg/kg, ref Limebeer et al. 2014", "value": "suppresses"},
      {"measurement": "AEA in rat whole brain tissue", "setting": "[4]", "value": "elevated"},
      {"measurement": "elevation of 2AG level in nucleus accumbens", "setting": "[5]", "value": "about 50%"},
      {"measurement": "elevation of AEA level in nucleus accumbens", "setting": "[5]", "value": "~100", "unit": "%"},
      {"measurement": "blocking the activities of rat MAGL in whole brain analysis", "setting": "rat MAGL", "value": "ineffective"}
    ]},
    {"smiles": "Cc1c(C(=O)NN2CCCCC2)nn(-c2ccc(Cl)cc2Cl)c1-c1ccc(Cl)cc1", "note": "[SR141716]", "values": [
      {"measurement": "reversal of AM4301 suppression of acute nausea by CB1 antagonist", "setting": "male Sprague-Dawley rats [6]", "value": "reversed the suppressive effect of AM4301"},
      {"measurement": "reversal of AM4302 suppression of anticipatory nausea by CB1 antagonist", "setting": "male Sprague-Dawley rats [7]; SR 2.5 mg/kg 90 min after AM4302 20 mg/kg", "value": "reversed"},
      {"measurement": "effect of CB1 antagonist on its own on contextually elicited gaping", "setting": "male Sprague-Dawley rats [7]; VEH-SR 2.5 mg/kg", "value": "did not have an effect on its own"}
    ]},
    {"smiles": "O=C(ON1C(=O)CCC1=O)N1CCN(C(c2ccc(Cl)cc2)c2ccc(Cl)cc2)CC1", "note": "[MJN110]", "values": [
      {"measurement": "acute nausea, systemic MAGL inhibitor", "setting": "male Sprague-Dawley rats [2]; [9]", "value": "suppresses"},
      {"measurement": "acute nausea after administration into the VIC", "setting": "[1]; ref Sticht et al. 2012b", "value": "suppressed"},
      {"measurement": "anticipatory nausea, systemic MAGL inhibitor", "setting": "male Sprague-Dawley rats [3]; [9]", "value": "suppresses"},
      {"measurement": "2-AG in the VIC", "setting": "[8]", "value": "elevates"}
    ]}
  ]
}
